Test results: ChEMBL document CHEMBL1201862, “PubChem BioAssay data set” (2004)
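How tested: cells in 96-well plates exposed to compound for 48 hours at five concentrations. Here, GI50 denotes the concentration required for 50% inhibition of growth.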 Activity calls are given as the source filed them. Rule as the data show it: active = GI50 up to about 1.1 µM and inactive = higher.

Columns and labels:
Assay in all cases: NCI-60 cell line screen, 48 h
786-0 = tested on: 786-0
ACHN = tested on: ACHN
DU-145 = tested on: DU-145
EKVX = tested on: EKVX
HCC 2998 = tested on: HCC 2998
HCT-15 = tested on: HCT-15
HL-60 = tested on: HL-60
HOP-62 = tested on: HOP-62
K562 = tested on: K562
Malme-3M = tested on: Malme-3M
NCI-H226 = tested on: NCI-H226
NCI/ADR-RES = tested on: NCI/ADR-RES
OVCAR-3 = tested on: OVCAR-3
OVCAR-5 = tested on: OVCAR-5
SF-295 = tested on: SF-295
SK-MEL-28 = tested on: SK-MEL-28
SK-MEL-5 = tested on: SK-MEL-5
SR = tested on: SR
TK-10 = tested on: TK-10
UACC-62 = tested on: UACC-62

Measured: GI50

Nc1nc(O)c(N)c(NCCOCP(=O)(O)O)n1
> 100 µM: HCT-15
inactive: 786-0 > 100 µM | ACHN > 100 µM | DU-145 > 100 µM | EKVX > 100 µM | HCC 2998 > 100 µM | HL-60 > 84.1 µM | HOP-62 > 100 µM | K562 > 100 µM | Malme-3M > 100 µM | NCI-H226 > 100 µM | NCI/ADR-RES > 100 µM | OVCAR-3 > 100 µM | OVCAR-5 > 100 µM | SF-295 > 100 µM | SK-MEL-28 > 100 µM | SK-MEL-5 > 100 µM | SR > 100 µM | TK-10 > 100 µM | UACC-62 > 57.1 µM

Nc1ccn(C2CCC(CO)O2)c(=S)n1 (stereo not drawn)
inactive: 786-0 > 100 µM | ACHN > 100 µM | DU-145 > 100 µM | EKVX > 100 µM | HCC 2998 > 100 µM | HL-60 > 100 µM | HOP-62 > 100 µM | K562 > 100 µM | Malme-3M > 100 µM | NCI-H226 > 100 µM | NCI/ADR-RES > 100 µM | OVCAR-3 > 100 µM | OVCAR-5 > 100 µM | SF-295 > 100 µM | SK-MEL-5 > 100 µM | SR > 100 µM | TK-10 > 100 µM | UACC-62 > 100 µM
> 100 µM: HCT-15

COc1cccc2c3cccc(OC)c3c3[nH]cnc3c12
active: HL-60 0.785 µM
1.76 µM: HCT-15
inactive: 786-0 1.58 µM | ACHN 8.81 µM | DU-145 1.31 µM | EKVX 14.7 µM | HCC 2998 3.46 µM | HOP-62 16.4 µM | K562 2.08 µM | Malme-3M 3.88 µM | NCI-H226 15.9 µM | NCI/ADR-RES 3.09 µM | OVCAR-3 13.9 µM | OVCAR-5 5.37 µM | SF-295 4.78 µM | SK-MEL-28 5.24 µM | SR 2.16 µM | TK-10 1.65 µM | UACC-62 16.7 µM

c1ccc2c3nnc(c2c1)SCCCSc1nnc(c2ccccc12)SCCCS3
> 100 µM: HCT-15
inactive: 786-0 54.1 µM | ACHN 72.3 µM | DU-145 33.7 µM | EKVX > 100 µM | HCC 2998 > 100 µM | HL-60 > 100 µM | HOP-62 24.2 µM | K562 > 100 µM | Malme-3M 34.8 µM | NCI-H226 24.3 µM | NCI/ADR-RES 33.4 µM | OVCAR-3 25.8 µM | OVCAR-5 > 100 µM | SF-295 92.3 µM | SK-MEL-28 44.7 µM | SK-MEL-5 23 µM | SR 84.1 µM | TK-10 76.7 µM | UACC-62 31.7 µM

C=C1[C@H](OCC(C)C)[C@@H](OC(=O)C(C)CC)[C@@H](O)C(C)(C)/C=C/[C@H](C)C(=O)[C@@]2(O)C[C@H](C)[C@H](O)[C@@H]2[C@H]1OC(=O)C(C)CC (stereo partly drawn)
7.82 µM: HCT-15
active: HL-60 1.05 µM | K562 0.991 µM
inactive: 786-0 4.1 µM | ACHN 3.02 µM | DU-145 7.83 µM | EKVX 8.83 µM | HCC 2998 2.84 µM | HOP-62 2.17 µM | Malme-3M 6.62 µM | NCI-H226 5.73 µM | NCI/ADR-RES 6.82 µM | OVCAR-3 4.94 µM | OVCAR-5 6.37 µM | SF-295 2.39 µM | SK-MEL-28 10.2 µM | SK-MEL-5 2.23 µM | SR 3.84 µM | TK-10 4 µM | UACC-62 3.92 µM

CN(Cc1ccccc1)/C(=N\C#N)N(Cc1ccccc1)Cc1ccccc1
active: SR 0.0383 µM
26.6 µM: HCT-15
inactive: 786-0 31.5 µM | ACHN 24.3 µM | DU-145 39.9 µM | EKVX 34.6 µM | HCC 2998 34.8 µM | HL-60 30.1 µM | HOP-62 27.7 µM | K562 25.2 µM | Malme-3M 25.2 µM | NCI-H226 28.8 µM | NCI/ADR-RES 19.8 µM | OVCAR-3 18 µM | OVCAR-5 21.1 µM | SF-295 14.1 µM | SK-MEL-28 27.3 µM | SK-MEL-5 18.4 µM | TK-10 33 µM | UACC-62 20.4 µM

COC1C(O)C(O[C@H]2CC[C@@]3(C)C(CC[C@@H]4[C@@H]3CC[C@]3(C)[C@@H](C(C)OC5OC(CO)C(O)C(O)C5O)CC[C@]43O)C2)OC(C)C1OC1OC(CO)C(O)C(O)C1O (stereo partly drawn)
inactive: 786-0 > 100 µM | ACHN > 100 µM | DU-145 > 100 µM | EKVX > 100 µM | HCC 2998 > 100 µM | HOP-62 > 100 µM | K562 > 100 µM | Malme-3M > 100 µM | NCI-H226 > 100 µM | NCI/ADR-RES > 100 µM | OVCAR-3 > 100 µM | OVCAR-5 > 100 µM | SF-295 > 100 µM | SK-MEL-28 > 100 µM | SK-MEL-5 > 100 µM | SR > 100 µM | TK-10 > 100 µM | UACC-62 > 100 µM
> 100 µM: HCT-15

O=C1CSC2(CC(/C=C/c3cccs3)=NN2c2cccc(S(=O)(=O)O)c2)N1c1nc2ccccc2s1 (stereo not drawn)
inactive: 786-0 88.3 µM | ACHN 68.9 µM | DU-145 > 100 µM | EKVX 52.6 µM | HCC 2998 > 100 µM | HL-60 > 100 µM | K562 49.4 µM | Malme-3M > 100 µM | NCI-H226 39.9 µM | NCI/ADR-RES > 100 µM | OVCAR-5 > 100 µM | SK-MEL-28 > 100 µM | SK-MEL-5 > 100 µM | SR 30.2 µM | TK-10 62.1 µM | UACC-62 49.4 µM
> 100 µM: HCT-15

COc1ccc(-c2cc(-c3ccc(Nc4ccnc5cc(C(F)(F)F)ccc45)cc3)[nH]c(=O)c2C#N)cc1
> 100 µM: HCT-15
inactive: 786-0 14.1 µM | ACHN > 42.1 µM | DU-145 > 84.7 µM | EKVX 98.9 µM | HCC 2998 > 100 µM | HL-60 > 100 µM | K562 33.8 µM | Malme-3M > 100 µM | NCI-H226 > 29.3 µM | NCI/ADR-RES > 100 µM | OVCAR-3 > 100 µM | OVCAR-5 > 66.5 µM | SF-295 > 32.7 µM | SK-MEL-28 > 72.1 µM | SK-MEL-5 99.8 µM | SR 9.51 µM | TK-10 > 43.6 µM | UACC-62 62.4 µM

Cc1ccc(S(=O)(=O)NNC(=O)Nc2ccc([N+](=O)[O-])cc2)cc1
inactive: 786-0 24.9 µM | ACHN > 100 µM | DU-145 83.2 µM | EKVX > 100 µM | HCC 2998 64.9 µM | HL-60 36.1 µM | HOP-62 27.9 µM | K562 38.4 µM | Malme-3M 76 µM | NCI-H226 > 100 µM | NCI/ADR-RES 27.4 µM | OVCAR-3 19.6 µM | OVCAR-5 > 100 µM | SF-295 36.6 µM | SK-MEL-28 > 100 µM | SK-MEL-5 29 µM | SR 42.6 µM | TK-10 67.3 µM | UACC-62 22.8 µM
24.5 µM: HCT-15
